Laboratory results published in patent US11364305B2, “Nanoparticle conjugates and uses thereof” (UNIVERSITY OF MIAMI, priority 2015, dated 2022).
[ ]: non-standard residue; d: D form. Abu = CC[C@H](N)C(=O)O; Ahx = NCCCCCC(=O)O

Assays:
[1] = system: Bone marrow cells from C57Bl/6 mice; experiment: Transfection of early hematopoietic progenitor cells from bone marrow (flow cytometry); type: cell-based, mouse
Procedure: FIG. 24B provides histograms that how the binding of 4PD (open histogram) over the control (filled histogram). The dot blot on the right summarize the binding from ten independent assays.
Bone marrow cells from C57Bl/6 mice were incubated for 10 minutes with 4PD loaded with Alexafluor 555 washed, counterstained with anti-lineage cocktail, anti-CD45, anti-Sca1, anti ckit, anti-CD34, anti-CD16/CD32, anti-CD150 and anti-CD48 antibodies, and analyzed by flow cytometry.
Importantly, the viability of the cells after transfection was higher than 95%.

CD11b+MDSC = experiment: Alexa555-shRNA transfection of CD11b+ MDSC from CT26 tumor bearing mice (FACS, fluorescence microscopy); type: cell-based, mouse; conditions: 15 minutes at 37° C., then 2 hours; FACS and fluorescence microscopy
Procedure: MDSC isolated from CT26 tumor bearing mice were transfected with: 1) Alexa555-siRNA alone (gray filled line in FIGS. 5A and 5B), 2) Alexa555-siRNA Dendrimer (black line, bottom panel, FIG. 5B) or 3) Alexa555-siRNA IL4Rα targeting dendrimer (black line, top panel, FIG. 5A). 45 minutes later cells were analyzed by immune-fluorescence microscopy (FIG. 5C) and by FACS (FIG. 5B) after gating on the alive (DAPI negative) cells.
(§1) Next, the ability of 4PD to bind to the native IL4Rα receptor expressed on a cell membrane was evaluated. To this aim, the capacity of 4PD to recognize CD11b+myeloid cells isolated from tumor bearing mice was evaluated. Briefly, CD11b+MDSC were magnetically isolated from the spleen of Balb/c mice challenged 2 weeks before with the CT26 colon carcinoma. Purified cells were incubated at 37° C. for 15 minutes with Alexa555-shRNA loaded onto 4PD or dendrimers conjugated with scramble peptide as negative control. After the incubation, cells were washed and incubated for an additional 2 hours at 37° C. in CTL media. Cells were harvested and analyzed by FACS (FIG. 5B) or by fluorescence microscopy (FIG. 5C) to determine Alexa-555-shRNA transfection. […] Similarly (FIG. 6B), Alexa555 fluorescence can be found only on CD33+IL4Rα+ MDSCs (black histogram) but not in other subsets as the IL4Rα-CD33+ myeloid cells (purple) or the non-myeloid (CD33-IL4Rα−) cells.

MDSC and macrophages = experiment: In vivo specificity of 4PD in CT26 bearing mice (multicolor flow cytometry of tumor, spleen, liver); set-up: species or system mouse; conditions: for Alexa555-shRNA accumulation in cell subsets: with cardiolipin
Procedure: Mice bearing the CT26 colon carcinoma (0.7 cm in diameter) were injected with Alexa555-siRNA loaded onto 4PD (black bar) or, as control, onto G5 PAMAM dendrimer functionalized with a random peptide. Two hours later, mice were sacrificed. Single cell suspensions from the spleen, the tumor and the liver were labeled with antibodies specific for Gr1, CD11b, F4/80, CD11c, CD3, CD4, and CD8 to identify granulocytic MDSC (gMDSC), monocytic MDSC (mMDSC), macrophages, dendritic cells, and helper and cytotoxic T cell. Fluorescence in the Alexa555 channel in each population was evaluated by FACSas a read out of 4PD mediated transfection.
In order to evaluate 4PD specificity in vivo, Balb/c mice bearing the CT26 colon carcinoma were injected intravenously with 20 ug of Alexa555-shRNA loaded into the 4PD platform with cardiolipin. Alexa 555-shRNA loaded dendrimer coupled with control peptide (a mixture of random peptides) were used as control. Cardiolipin was added to the complexes as described above (FIG. 3). Two hours after 4PD/Alexa555-shRNA systemic injection, mice were sacrificed and single cell suspension from the tumor, the spleen, and the liver was analyzed by multicolor flow cytometry (FIG. 10). In particular, cells were stained with CD11b, Gr1, CD11c and F4/80 specific antibodies to identify granulocytic− (g−) MDSCs (CD11bGr1high), monocytic− (m−) MDSCs (CD11b+GR1−), CD11b+Gr-1 negative myeloid cells, F4/80+macrophages, and CD11chigh DC. Additionally, cells were stained with antibodies specific for CD3, CD8, and CD4 to recognize T cell subsets.

human MDSCs = experiment: Binding of 4PD/Alexa555-shRNA complexes to PBMCs from HNSCC patients by FACS; type: cell-based; conditions: 30 minutes at 4° C.
Procedure: Transfection was evaluated by FACS. In FIG. 6A, the red dot represent the cells transfected with the 4PD nanoparticles (i.e., CD33+IL4Rα+CD11b+CD14+HLADRlow monocytes/MDSC). FIG. 6B depicts the Alexa555 fluorescence in the indicated gates. In FIG. 6C, apparent Kd was calculated by incubating a fixed number of PBMCs with the indicated concentration of Alexa555shRNA/4PD complexes for 10 minutes at 4° C. and by evaluating the MFI in the relevant channel by FACS.
as §1, with “After the incubation, cells were washed and incubated for an additional 2 hours at 37° C. in CTL media.” left out, “cells. […]” for “cells.”

4PD: G5 PAMAM dendrimer conjugated by maleidoamide chemistry to the IL4Rα targeting peptide of SEQ ID NO: 1 (Ac-LQRLFRAFR[Abu]LD[Ahx]C-NH2; also: Cys14 joined by maleimidobenzoyl thioether to G5 PAMAM dendrimer)
transfection ([1]; HSC, HPC1, HPC2, MPP, CMP, GMP, 10 minutes incubation): able to efficiently transfect
viability of the cells after transfection ([1]; bone marrow cells): higher than 95%
transfection ([1]; megakariocytes-erythrocyte precursors): at lower level
Alexa-555-shRNA transfection (CD11b+MDSC): can promote the internalization of Alexa-555 in the cells
Alexa555-shRNA binding (MDSC and macrophages; non-myeloid leukocytes subsets, 2 hours after i.v. injection): Only non-specific level of binding was observed
Alexa555-shRNA accumulation in cell subsets (MDSC and macrophages; spleen and liver, 2 hours after i.v. injection): accumulates mostly in F4/80+ tumor educated macrophages, and CD11b+GR1− myeloid cells
Alexa555-shRNA accumulation in cell subsets (MDSC and macrophages; tumor, 2 hours after i.v. injection of 20 ug Alexa555-shRNA): accumulates mostly in the tumor associated gMDSCs, mMDSC, macrophages and CD11b+Gr1− myeloid cells
cells bound by 4PD among PBMCs (human MDSCs): binds preferentially to CD11b+CD14+CD33+IL4Rα+HLADRdim cells
